The target in assay [1] is T1, guinea-pig liver transglutaminase (Sigma) (UniProt P08587).
T1 construct: purchased Sigma; host or cells: guinea-pig liver
T1 sequence (P08587 2-690): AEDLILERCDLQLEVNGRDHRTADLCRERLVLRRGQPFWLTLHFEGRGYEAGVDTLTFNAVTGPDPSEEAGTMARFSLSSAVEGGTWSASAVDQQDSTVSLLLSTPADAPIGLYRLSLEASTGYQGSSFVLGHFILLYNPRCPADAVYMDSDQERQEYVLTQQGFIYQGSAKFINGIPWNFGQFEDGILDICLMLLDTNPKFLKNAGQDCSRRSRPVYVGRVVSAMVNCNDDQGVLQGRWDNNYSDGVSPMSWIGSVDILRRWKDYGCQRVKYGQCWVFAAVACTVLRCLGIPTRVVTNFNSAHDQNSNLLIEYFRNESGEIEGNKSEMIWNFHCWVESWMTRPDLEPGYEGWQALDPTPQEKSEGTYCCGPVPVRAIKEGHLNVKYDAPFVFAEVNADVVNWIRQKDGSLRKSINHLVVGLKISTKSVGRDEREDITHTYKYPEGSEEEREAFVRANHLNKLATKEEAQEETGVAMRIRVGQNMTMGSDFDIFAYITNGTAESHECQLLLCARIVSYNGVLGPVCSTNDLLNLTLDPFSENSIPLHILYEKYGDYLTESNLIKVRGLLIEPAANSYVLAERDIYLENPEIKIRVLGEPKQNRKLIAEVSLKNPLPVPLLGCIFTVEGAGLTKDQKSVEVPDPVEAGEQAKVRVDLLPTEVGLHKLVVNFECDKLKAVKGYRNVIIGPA
Kind of assay: Binding of 125I-r31 kD FBD to extracellular matrix (ECM) of endothelial cells in the presence of exogenous transglutaminase. It counts as biochemical. Particulars: 0.3 μM 125I-r31 kD FBD; 3 mM CaCl2; 0.02 units/ml transglutaminase; 45 minutes. The procedure:
FIG. 51. Binding of ^125I-r31 kD FBD to ECM in the presence of various constituents
0.3 μM of ^125I-r31 kD FBD was incubated with extracellular matrix of endothelial cells (ECM) as described by Eld r et al. (20) in a 37° C. CO2-incubator in the presence of saline, 3 mM CaCl2 and 0.02 units/ml of guinea-pig liver transglutaminase (TG) and other constituents as indicated in the figure. The control was done in the absence of transglutaminase.
The reactions were terminated after 45 minutes by washing five times with PBS. Plates were extracted with a solution of 0.5% SDS and aliquots of the extracted material were measured in a gamma counter.
The binding was now further characterized by examination of the binding of 0.3 μM ^125I-r31 kD FBD to ECM in the presence and absence of exogenous transglutaminase; additionally the binding in the presence of transglutaminase was examined in the presence of each of heparin, fibronectin or spermidine.

Assay [2] concerns clotting of citrated healthy human plasma by thrombin. In words: Plasma Thrombin Time (TT), clotting of citrated healthy human plasma. The class given is biochemical. Particulars: 1 mM spermidine; for "TT" Values (%): no addition: 100. The procedure:
The effect of the r31 kD polypeptide on clotting of whole blood was measured using the clinical laboratory parameter defined as Thrombin-Time. In this reaction aliquots of 100 μl citrated healthy human plasma were mixed with 100 μl PBS and either the transglutaminase inhibitor spermidine, or with reduced-carboxyamidated p31 kD or reoxidized-refolded r31 kD. 200 μl thrombin solution was added to each aliquot while continuously mixing. The time from the addition of the thrombin to the formation of clot was measured, and is expressed as “TT” in seconds (Table B).

Structures are written as SMILES.

Consider `NCCCCNCCCN` [spermidine], for which the “effect on binding of r31 kD FBD to ECM in the presence of transglutaminase” value in assay [1] is listed as “inhibits the binding”. Also, the “"TT" Values (\)” value in assay [2] (thrombin conc. 1.25 (μ/ml)) is 105; in assay [2] (thrombin conc. 2.5 (μ/ml)), 72. Also, the “"TT" Values” in assay [2] (thrombin conc. 1.25 (μ/ml), no addition: 55.4) worked out at 114 s; in assay [2] (thrombin conc. 2.5 (μ/ml), no addition: 25.5), 44 s. Moreover, the “"TT" Values (%)” value was found to be 205% in assay [2] (thrombin conc. 1.25 (μ/ml)) and 172% in assay [2] (thrombin conc. 2.5 (μ/ml)).
